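Grown in 96-well plates, cells were treated for 48 hours with each compound at five concentrations. Insufficient inhibition: endpoint recorded as highest concentration tested. The concentration for full growth arrest is given as TGI.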
How the values were obtained:
Experiment in all cases: NCI anticancer screen, dose series, 48 h
SK-MEL-28 melanoma = system: SK-MEL-28 melanoma
U251 CNS = system: U251 CNS
SW-620 colon = system: SW-620 colon
OVCAR-3 ovarian = system: OVCAR-3 ovarian
COLO 205 colon = system: COLO 205 colon
HCT-15 colon = system: HCT-15 colon
CCRF-CEM leukemia = system: CCRF-CEM leukemia
SF-539 CNS = system: SF-539 CNS
HL-60(TB) leukemia = system: HL-60(TB) leukemia
SNB-78 CNS = system: SNB-78 CNS
MALME-3M melanoma = system: MALME-3M melanoma
LOX IMVI melanoma = system: LOX IMVI melanoma
NCI-H522 lung = system: NCI-H522 lung
EKVX NSCLC = system: EKVX NSCLC
SN12C renal = system: SN12C renal
MOLT-4 leukemia = system: MOLT-4 leukemia
SK-MEL-5 melanoma = system: SK-MEL-5 melanoma
M19-MEL melanoma = system: M19-MEL melanoma
DMS 273 small cell lung = system: DMS 273 small cell lung
XF 498 CNS = system: XF 498 CNS
RPMI-8226 leukemia = system: RPMI-8226 leukemia
SR leukemia = system: SR leukemia
NCI-H226 lung = system: NCI-H226 lung
SNB-19 CNS = system: SNB-19 CNS
KM20L2 colon = system: KM20L2 colon
KM12 colon = system: KM12 colon
UACC-257 melanoma = system: UACC-257 melanoma
LXFL 529 NSCLC = system: LXFL 529 NSCLC
CAKI-1 renal = system: CAKI-1 renal
HCC-2998 colon = system: HCC-2998 colon
A549 NSCLC = system: A549 NSCLC
OVCAR-8 ovarian = system: OVCAR-8 ovarian
M14 melanoma = system: M14 melanoma
UO-31 renal = system: UO-31 renal
HCT-116 colon = system: HCT-116 colon
SF-295 CNS = system: SF-295 CNS
786-0 renal = system: 786-0 renal
ACHN renal = system: ACHN renal
DLD-1 colon = system: DLD-1 colon
OVCAR-4 ovarian = system: OVCAR-4 ovarian
IGROV1 ovarian = system: IGROV1 ovarian
K-562 leukemia = system: K-562 leukemia
SK-OV-3 ovarian = system: SK-OV-3 ovarian
NCI-H23 lung = system: NCI-H23 lung
HOP-92 NSCLC = system: HOP-92 NSCLC
UACC-62 melanoma = system: UACC-62 melanoma
A498 renal = system: A498 renal
OVCAR-5 ovarian = system: OVCAR-5 ovarian
HT29 colon = system: HT29 colon
HOP-62 NSCLC = system: HOP-62 NSCLC
DMS 114 small cell lung = system: DMS 114 small cell lung
SF-268 CNS = system: SF-268 CNS
HOP-18 NSCLC = system: HOP-18 NSCLC
SNB-75 CNS = system: SNB-75 CNS

In the case of COC(=O)C(=O)C(C#N)c1cccc2ccccc12 (centres undefined), the TGI (SK-MEL-28 melanoma) is reported as over 100 µM, the TGI (U251 CNS) is reported as over 100 µM and the TGI (SW-620 colon) is reported as over 100 µM. The TGI (OVCAR-3 ovarian) was over 100 µM, the TGI (COLO 205 colon) was over 100 µM and the TGI (HCT-15 colon) was over 100 µM. For the same compound, the TGI (CCRF-CEM leukemia) was over 100 µM, the TGI (SF-539 CNS) was over 100 µM and the TGI (HL-60(TB) leukemia) was over 100 µM. For the same compound, the TGI (SNB-78 CNS) was over 100 µM, the TGI (MALME-3M melanoma) was over 100 µM and the TGI (LOX IMVI melanoma) was over 100 µM. The TGI (NCI-H522 lung) was over 100 µM, the TGI (EKVX NSCLC) was over 100 µM and the TGI (SN12C renal) was over 100 µM. The TGI (MOLT-4 leukemia) was over 100 µM, the TGI (SK-MEL-5 melanoma) was over 100 µM and the TGI (M19-MEL melanoma) was over 100 µM. For the same compound, the TGI (DMS 273 small cell lung) was over 100 µM, the TGI (XF 498 CNS) was over 100 µM and the TGI (RPMI-8226 leukemia) was over 100 µM. For the same compound, the TGI (SR leukemia) was over 100 µM, the TGI (NCI-H226 lung) was over 100 µM and the TGI (SNB-19 CNS) was over 100 µM. For the same compound, the TGI (KM20L2 colon) was over 100 µM, the TGI (KM12 colon) was 99.7 µM and the TGI (UACC-257 melanoma) was over 100 µM. For the same compound, the TGI (LXFL 529 NSCLC) was over 100 µM, the TGI (CAKI-1 renal) was over 100 µM and the TGI (HCC-2998 colon) was over 100 µM. For the same compound, the TGI (A549 NSCLC) was over 100 µM, the TGI (OVCAR-8 ovarian) was over 100 µM and the TGI (M14 melanoma) was over 100 µM. It also gave a TGI (UO-31 renal) of over 100 µM, a TGI (HCT-116 colon) of over 100 µM and a TGI (SF-295 CNS) of over 100 µM. For the same compound, the TGI (786-0 renal) was over 100 µM, the TGI (ACHN renal) was over 100 µM and the TGI (DLD-1 colon) was over 100 µM. For the same compound, the TGI (OVCAR-4 ovarian) was over 100 µM, the TGI (IGROV1 ovarian) was over 100 µM and the TGI (K-562 leukemia) was over 100 µM. It also gave a TGI (SK-OV-3 ovarian) of over 100 µM, a TGI (NCI-H23 lung) of over 100 µM and a TGI (HOP-92 NSCLC) of over 100 µM. It also gave a TGI (UACC-62 melanoma) of over 100 µM, a TGI (A498 renal) of over 100 µM and a TGI (OVCAR-5 ovarian) of over 100 µM. The TGI (HT29 colon) was over 100 µM, the TGI (HOP-62 NSCLC) was over 100 µM and the TGI (DMS 114 small cell lung) was over 100 µM. The TGI (SF-268 CNS) was over 100 µM, the TGI (HOP-18 NSCLC) was over 100 µM and the TGI (SNB-75 CNS) was over 100 µM.

Source: PubChem BioAssay (NCI)
